According to patent US11091482B2, “Isoxazolyl-carbonyloxy azabicyclo[3.2.1]octanyl compounds as FXR activators” (ARDELYX, INC., priority 2016, dated 2021):

What was measured:
[1] = biological target: human Farnesoid X receptor ligand-binding domain/Gal4 DNA binding domain chimera (Homo sapiens (Human), UniProt Q96RI1); test: Cell-based FXR beta-lactamase reporter assay (FXR-UAS-bla HEK 293T cells); settings: for Emax: HEK-293T, read-out: % Efficacy; for EC50 / FXR pEC50 / % Efficacy: cellular FXR beta-lactamase reporter assay; for EC50 / FXR pEC50: -log EC50; for EC50: read-out: FXR pEC50 (converted); for % Efficacy: extent of activation relative to GW4064
human Farnesoid X receptor ligand-binding domain/Gal4 DNA binding domain chimera, sequence (Q96RI1 262-486, stated change not applied): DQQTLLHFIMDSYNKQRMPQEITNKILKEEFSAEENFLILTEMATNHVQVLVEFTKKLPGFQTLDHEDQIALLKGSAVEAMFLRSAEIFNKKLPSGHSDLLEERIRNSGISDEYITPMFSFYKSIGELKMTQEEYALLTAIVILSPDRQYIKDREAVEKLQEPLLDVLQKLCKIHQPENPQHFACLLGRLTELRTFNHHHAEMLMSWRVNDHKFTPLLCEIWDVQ
Method: FXR activation was measured using a cell line and procedure obtained from Life Technologies (Cat #K1691). FXR-UAS-bla HEK 293T cells contain a human Farnesoid X receptor ligand-binding domain/Gal4 DNA binding domain chimera stably integrated into the CellSensor® UAS-bla HEK 293T cell line. The CellSensor® UAS-bla HEK 293T contains a beta-lactamase reporter gene under control of a UAS response element stably integrated into HEK 293T cells. Activation of FXR by bound ligands results in transcriptional activation of the beta-lactamase reporter gene, which is detected via assay of beta-lactamase activity. Cells are harvested and diluted into assay medium containing phenol red-free DMEM supplemented with 2% Charcoal-stripped FBS, pyruvate, non-essential amino acids. Cells are then transferred to a 384 well assay plate. Test compounds are dissolved in DMSO and a 3-fold serial dilution series is generated, then further diluted into assay medium. […] A FRET-based […] is loaded into cells as its acetomethoxy ester. Intracellular esterases liberate free CCF4, a cephalosporin core linking 7-hydroxycoumarin to fluorescein. In the presence of beta-lactamase activity produced in the presence of FXR agonists, cleavage of CCF4 spatially separates the two dyes and disrupts FRET, so that exciting the coumarin at 409 nm now produces a blue fluorescence signal at 447 nm. The change in FRET signal is plotted against the test compound concentration and fit to a 3-parameter logistical equation.

[2] = biological target: ligand binding domain of human FXR (Homo sapiens (Human), UniProt Q96RI1); test: FXR ligand binding assay (LanthaScreen FRET); settings: for Emax: read-out: % Efficacy; for FXR pEC50 / % Efficacy / EC50: FXR ligand binding assay; for FXR pEC50 / EC50: -log EC50; for % Efficacy: extent of activation relative to GW4064; for EC50: read-out: FXR pEC50 (converted);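 for all read-outs here: TR-FRET coactivator recruitment: ligand-induced binding of fluorescein-labelled SRC2-2 peptide to GST-tagged FXR LBD detected via Tb anti-GST antibody, serial compound dilutions, 3-parameter logistic fit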
ligand binding domain of human FXR, sequence (Q96RI1 262-486): as the sequence (Q96RI1 262-486, stated change not applied) above
Method: The affinity of FXR ligands for the ligand binding domain of FXR was determined using a commercially available human FXR ligand binding assay (LanthaScreen, Thermofisher Cat #PV4833). […] Binding of FXR ligands to the FXR ligand binding domain promotes binding of the fluorescein-labelled SRC2-2 peptide. This causes a FRET signal between the terbium-labelled anti-GST antibody and the fluorescein-labelled SRC peptide which are both bound to the FXR ligand binding domain.
Test compounds are dissolved in DMSO and a 3-fold serial dilution series is generated, then further diluted into assay buffer. The compounds are mixed with 5 nM GST-tagged FXR ligand binding domain, 5 nM Tb-labelled anti-GST antibody and 500 nM fluorcscein-labelled SRC2-2 peptide in a pH 7.4 buffer. The reaction is incubated at room temperature for 1 hour, then the FRET signal is measured as the ratio of the 520 nm/495 nm emission following excitation at 340 nm. The change in FRET signal is plotted against the test article concentration and fit to a 3-parameter logistical equation.

Compound | Emax [1] [%] | EC50 [1] [nM] | Emax [2] [%] | FXR pEC50 [1] | % Efficacy [1] [%] | FXR pEC50 [2] | % Efficacy [2] [%] | EC50 [2] [nM]
COc1cc2nc(N3[C@@H]4CC[C@H]3C[C@@H](OC(=O)c3c(-c5c(F)cccc5F)noc3C3CC3)C4)sc2cc1C(=O)O [Compound I-18, 2-[(1R,3R,5S)-3-[5-cyclopropyl-3-(2,6-difluorophenyl)-1,2-oxazole-4-carbonyloxy]-8-azabicyclo[3.2.1]octan-8-yl]-5-methoxy-1,3-benzothiazole-6-carboxylic Acid] | 99 | 251 | 66 | – | – | – | – | –
O=C(O)CNC(=O)c1cc(F)c2nc(N3[C@@H]4CC[C@H]3C[C@@H](OC(=O)c3c(-c5c(Cl)cccc5Cl)noc3C3CC3)C4)sc2c1 [Compound I-4, 2-({2-[(1R,3R,5S)-3-[5-cyclopropyl-3-(2,6-dichlorophenyl)-1,2-oxazole-4-carbonyloxy]-8-azabicyclo[3.2.1]octan-8-yl]-4-fluoro-1,3-benzothiazol-6-yl}formamido)acetic Acid] | 109 | 794 | 76 | – | – | – | – | –
O=C(O)c1cc(F)c2nc(N3[C@@H]4CC[C@H]3C[C@@H](OC(=O)c3c(-c5ccccc5OC(F)(F)F)noc3C3CC3)C4)sc2c1 [Compound I-14, 2-[(1R,3R,5S)-3-{5-cyclopropyl-3-[2-(trifluoromethoxy)phenyl]-1,2-oxazole-4-carbonyloxy}-8-azabicyclo[3.2.1]octan-8-yl]-4-fluoro-1,3-benzothiazole-6-carboxylic Acid] | – | – | – | 8.1 | 116 | 7.6 | 147 | –
O=C(O)c1cc(F)c2nc(N3[C@@H]4CC[C@H]3C[C@@H](OC(=O)c3c(C56CCC(CC5)CC6)noc3C3CC3)C4)sc2c1 [Compound I-20, 2-[(1R,3R,5S)-3-(3-{Bicyclo[2.2.2]octan-1-yl}-5-cyclopropyl-1,2-oxazole-4-carbonyloxy)-8-azabicyclo[3.2.1]octan-8-yl]-4-fluoro-1,3-benzothiazole-6-carboxylic Acid] | – | – | – | 6.6 | 22 | >4.5 | – | –
O=C(NCCS(=O)(=O)O)c1cc(F)c2nc(N3[C@@H]4CC[C@H]3C[C@@H](OC(=O)c3c(-c5c(Cl)cccc5Cl)noc3C3CC3)C4)sc2c1 [Compound I-5, 2-({2-[(1R,3R,5S)-3-[5-cyclopropyl-3-(2,6-dichlorophenyl)-1,2-oxazole-4-carbonyloxy]-8-azabicyclo[3.2.1]octan-8-yl]-4-fluoro-1,3-benzothiazol-6-yl}formamido)ethane-1-sulfonic Acid] | 72 | 2510 | 77 | – | – | – | – | –
O=C(O)c1cc(F)c2nc(N3[C@@H]4CC[C@H]3C[C@@H](OC(=O)c3c(-c5c(Cl)cccc5Cl)noc3C3(F)CC3)C4)sc2c1 [Compound I-27, 2-[(1R,3R,5S)-3-[3-(2,6-dichlorophenyl)-5-(1-fluorocyclopropyl)-1,2-oxazole-4-carbonyloxy]-8-azabicyclo[3.2.1]octan-8-yl]-4-fluoro-1,3-benzothiazole-6-carboxylic Acid] | – | – | – | 8.4 | 108 | 8.2 | 107 | –
O=C(O[C@H]1C[C@H]2CC[C@@H](C1)N2c1ccc2c(C(=O)O)noc2c1)c1c(-c2c(Cl)cccc2Cl)noc1C1CC1 [Compound I-29, 6-[(1R,3R,5S)-3-[5-cyclopropyl-3-(2,6-dichlorophenyl)-1,2-oxazole-4-carbonyloxy]-8-azabicyclo[3.2.1]octan-8-yl]-1,2-benzoxazole-3-carboxylic Acid] | 124 | 251 | 98 | – | – | – | – | 316
O=C(O)c1ccc(N2[C@@H]3CC[C@H]2C[C@@H](OC(=O)c2c(-c4c(Cl)cccc4OC(F)F)noc2C2CC2)C3)c(F)c1 [Compound I-43, 4-[(1R,3R,5S)-3-{3-[2-chloro-6-(difluoromethoxy)phenyl]-5-cyclopropyl-1,2-oxazole-4-carbonyloxy}-8-azabicyclo[3.2.1]octan-8-yl]-3-fluorobenzoic Acid] | 108 | 39.8 | 72 | – | – | – | – | 50.1
O=C(O)c1cc(OC(F)(F)F)c2nc(N3[C@@H]4CC[C@H]3C[C@@H](OC(=O)c3c(-c5c(Cl)cccc5Cl)noc3C3CC3)C4)sc2c1 [Compound I-9, 2-[(1R,3R,5S)-3-[5-cyclopropyl-3-(2,6-dichlorophenyl)-1,2-oxazole-4-carbonyloxy]-8-azabicyclo[3.2.1]octan-8-yl]-4-(trifluoromethoxy)-1,3-benzothiazole-6-carboxylic Acid] | 119 | 3.16 | 136 | – | – | – | – | –
O=C(O)c1cc(OC(F)(F)F)c2nc(N3[C@@H]4CC[C@H]3C[C@@H](OC(=O)c3c(C56CCC(CC5)CC6)noc3C3CC3)C4)sc2c1 [Compound I-57, 2-[(1R,3R,5S)-3-(3-{bicyclo[2.2.2]octan-1-yl}-5-cyclopropyl-1,2-oxazole-4-carbonyloxy)-8-azabicyclo[3.2.1]octan-8-yl]-4-(trifluoromethoxy)-1,3-benzothiazole-6-carboxylic Acid] | 33 | 398 | 26 | – | – | – | – | –
O=C(O)c1ncc(N2[C@@H]3CC[C@H]2C[C@@H](OC(=O)c2c(-c4c(Cl)cccc4Cl)noc2C2CC2)C3)cn1 [Compound I-54, 5-[(1R,3R,5S)-3-[5-Cyclopropyl-3-(2,6-dichlorophenyl)-1,2-oxazole-4-carbonyloxy]-8-azabicyclo[3.2.1]octan-8-yl]pyrimidine-2-carboxylic Acid] | 115 | > 20000 | 46 | – | – | – | – | –
O=C(O)c1cc(F)c2nc(N3[C@@H]4CC[C@H]3C[C@@H](OC(=O)c3c(-c5ccccc5)noc3C3CC3)C4)sc2c1 [Compound I-13, 2-[(1R,3R,5S)-3-(5-Cyclopropyl-3-phenyl-1,2-oxazole-4-carbonyloxy)-8-azabicyclo[3.2.1]octan-8-yl]-4-fluoro-1,3-benzothiazole-6-carboxylic Acid] | – | – | – | 6 | 93 | 6.7 | 40 | –
O=C(O)c1ccc(N2[C@@H]3CC[C@H]2C[C@@H](OC(=O)c2c(-c4c(Cl)cccc4Cl)noc2C2CC2)C3)c(Cl)c1 [Compound I-36, 3-chloro-4-[(1R,3R,5S)-3-[5-cyclopropyl-3-(2,6-dichlorophenyl)-1,2-oxazole-4-carbonyloxy]-8-azabicyclo[3.2.1]octan-8-yl]benzoic acid] | 99 | 158 | 106 | – | – | 7.3 | – | –
O=C(O)c1cc(C2CC2)c2nc(N3[C@@H]4CC[C@H]3C[C@@H](OC(=O)c3c(-c5c(Cl)cccc5Cl)noc3C3CC3)C4)sc2c1 [Compound I-12, 2-[(1R,3R,5S)-3-[5-cyclopropyl-3-(2,6-dichlorophenyl)-1,2-oxazole-4-carbonyloxy]-8-azabicyclo[3.2.1]octan-8-yl]-4-(cyclopropyl)-1,3-benzothiazole-6-carboxylic Acid] | 112 | 7.94 | 125 | – | – | – | – | –
COc1cc(C(=O)O)ccc1N1[C@@H]2CC[C@H]1C[C@@H](OC(=O)c1c(-c3c(Cl)cccc3Cl)noc1C1CC1)C2 [Compound I-40, 4-[(1R,3R,5S)-3-[5-cyclopropyl-3-(2,6-dichlorophenyl)-1,2-oxazole-4-carbonyloxy]-8-azabicyclo[3.2.1]octan-8-yl]-3-methoxybenzoic acid] | 117 | 39.8 | 103 | – | – | – | – | 63.1
Cc1onc(-c2c(Cl)cccc2Cl)c1C(=O)O[C@H]1C[C@H]2CC[C@@H](C1)N2c1nc2c(F)cc(C(=O)O)cc2s1 [Compound I-23, 2-[(1R,3S,5S)-3-[3-(2,6-dichlorophenyl)-5-methyl-1,2-oxazole-4-carbonyloxy]-8-azabicyclo[3.2.1]octan-8-yl]-4-fluoro-1,3-benzothiazole-6-carboxylic Acid] | – | – | – | 6.8 | 100 | 7.1 | 37 | –
O=C(O)c1cc(F)c2nc(N3[C@@H]4CC[C@H]3C[C@@H](OC(=O)c3c(C5CCC6(CC5)CC6)noc3C3CC3)C4)sc2c1 [Compound I-19, 2-[(1R,3R,5S)-3-(5-cyclopropyl-3-{spiro[2.5]octan-6-yl}-1,2-oxazole-4-carbonyloxy)-8-azabicyclo[3.2.1]octan-8-yl]-4-fluoro-1,3-benzothiazole-6-carboxylic Acid] | – | – | – | 6.8 | 79 | 7.2 | 55 | –
O=C(O)c1cc(F)cc(N2[C@@H]3CC[C@H]2C[C@@H](OC(=O)c2c(-c4c(Cl)cccc4Cl)noc2C2CC2)C3)c1 [Compound I-42, 3-[(1R,3R,5S)-3-[5-cyclopropyl-3-(2,6-dichlorophenyl)-1,2-oxazole-4-carbonyloxy]-8-azabicyclo[3.2.1]octan-8-yl]-5-fluorobenzoic acid] | 85 | 79.4 | 38 | – | – | 8 | – | –
